The values that follow are results of earlier work, collected in the CATMoS acute toxicity set (Mansouri et al. 2021).

In general, LD50 refers to the dose at which mortality reaches 50%.

Where “and” joins values, the source holds several entries; their conditions need not be identical. Equal entries are not always repeated.

The data set is described as follows: rat acute oral toxicity. Particulars: in vivo.
`CCCN(CCC)C(=O)C(Cc1ccc(OCCN(CC)CC)cc1)NC(=O)c1ccccc1` (centres undefined): the LD50 was 800 mg/kg and 1070 mg/kg.

In the case of `CC(C)OP(=S)(CCl)Sc1ccc(F)cc1` (centres undefined), the LD50 was 39 mg/kg. Take `CC(C)(SC(=O)N1CCCCC1)c1ccccc1`: the LD50 is 946 mg/kg.

On to `Nc1ccc(-c2ccc(N)cc2)cc1`, for which the LD50 was 309 mg/kg. Regarding `CCC(CC)(C(=O)O)c1cccc2ccccc12`, the 50% lethal dose (LD50) is 1080 mg/kg. In the case of `O=C1C=CC(=NCl)C=C1`, the LD50 was 100 mg/kg. With `CC(C=O)Cc1ccc(C(C)(C)C)cc1` (centres undefined), the LD50 is 1390 mg/kg. Take `CC(=O)OCC#N`: the LD50 was 32 mg/kg. Take `CS(=O)(=O)c1nnc(C(F)(F)F)s1`: the LD50 is 312 mg/kg.

`CC(C)(O)C#CC(C)(C)O`: the LD50 is 9000 mg/kg.

With `CCOP(=S)(OCC)SCn1nc(C)ccc1=O`, the LD50 is 45 mg/kg. Take `CCOc1ccc([N+](=O)[O-])cc1CNCCO`: the LD50 was 25 mg/kg. As for `CCCCCCOC(C[n+]1ccccc1)c1ccc(C2CCCCC2)cc1` (centres undefined), the LD50 was 250 mg/kg.

Turning to `CC(C)c1ccccc1OP(=O)(Oc1ccccc1)Oc1ccccc1`, the LD50 was 10000 mg/kg.

In the case of `CC(C)NCC1CCc2cc(CO)c([N+](=O)[O-])cc2N1` (centres undefined), the LD50 was 30 mg/kg.

As for `Cc1c(C(=O)N(C)C)nnn1-c1ccccc1`, the LD50 was 500 mg/kg. On to `COc1ccc(CN2CCN(C(c3ccc(F)cc3)c3ccc(F)cc3)CC2)c(OC)c1OC`, for which the LD50 was 307 mg/kg.

With `CCN(CC)CCOc1ccc(C2=C(c3ccccc3)Cc3cc(OC)ccc32)cc1`, the LD50 is 547 mg/kg. Regarding `C=CCC(CC=C)(C(=O)OCCN(CC)CC)c1ccccc1`, the LD50 is 1500 mg/kg. Take `CCCCCCCCCCCCCCCCCC[N+](C)(C)Cc1ccccc1`: the LD50 was 1250 mg/kg. Turning to `CN(Cc1cc(Br)cc(Br)c1N)C1CCCCC1`, the LD50 is 6000 mg/kg. For `NCC(c1cccs1)N1CCCCC1` (centres undefined), the LD50 is 1480 mg/kg. For `CCOC(=O)c1ccc([N+](=O)[O-])cc1`, the 50% lethal dose (LD50) is 2660 mg/kg. Regarding `NNc1nnc(NN)c2ccccc12`, the LD50 was 350 mg/kg and 400 mg/kg. For the compound `CC(C)CC(CCN(C(C)C)C(C)C)(C(N)=O)c1ccccn1` (centres undefined), the LD50 is 1100 mg/kg. For `C[C@H]1c2cccc(O)c2C(=O)C2=C(O)[C@]3(O)C(=O)C(C(N)=O)=C(O)[C@@H](N(C)C)[C@@H]3[C@@H](O)[C@@H]21`, the LD50 is 1700 mg/kg. `Cc1ccc(C)c(C)c1C`: the LD50 is 6410 mg/kg. `C=C(C)Cn1c(N)cc(=O)n(C)c1=O`: the LD50 is 1560 mg/kg. For the compound `ClCc1cc(Cl)cc(Cl)c1`, the 50% lethal dose (LD50) is 1080 mg/kg.

As to `CCOC(=O)NNc1ccc(N(CC)CC(C)O)nn1` (centres undefined), the LD50 is 2060 mg/kg. Regarding `O=C1CC2(CCCC2)CC(=O)N1CCCCN1CCN(c2nsc3ccccc23)CC1`, the LD50 is 1850 mg/kg. Regarding `CNC(=O)c1cc(OC)n(-c2cccc(Cl)c2)n1`, the LD50 is 1540 mg/kg. As to `C1CCC(CNC2=NCCS2)CC1`, the 50% lethal dose (LD50) was 50 mg/kg. `CCC(O)(CC)c1[nH]ncc1Cl`: the LD50 was 236 mg/kg. Regarding `COc1cc(O)c(C(=O)c2ccccc2)cc1S(=O)(=O)O`, the LD50 was 3530 mg/kg. For `CCCCCC(=O)c1ccc(N)cc1`, the LD50 was 216 mg/kg. Take `CC1(C)C(=O)N(Cl)C(=O)N1Br`: the LD50 is 1390 mg/kg.

For the compound `COc1cc(C(=O)N2CCN(C(=O)c3cc(OC)c(OC)c(OC)c3)CC2)cc(OC)c1OC`, the LD50 is 1000 mg/kg. For `COc1c(F)c(F)c2[nH]c(C(F)(F)F)nc2c1F`, the LD50 is 2.89 mg/kg. Consider `CC(C)CNC(=O)OCC(O)C1COc2ccccc2O1` (centres undefined), for which the LD50 is 1500 mg/kg. In the case of `COc1cc(C(C)=O)ccc1OCCCCN1CCN(c2ccccc2)CC1`, the LD50 was 573 mg/kg.

With `C=CC(=O)N(C)C`, the LD50 is 316 mg/kg. Take `C#CC(C)OC(=O)Nc1cccc(Cl)c1` (centres undefined): the LD50 is 2380 mg/kg. For `COP(=O)(OC)SC(P(=O)(OC)OC)=P(OC)(OC)OC`, the LD50 was 38 mg/kg.

As to `CC=CC=CC(=O)NO`, the LD50 was 2460 mg/kg. As for `C=CC(=O)N(CC)CC`, the LD50 was 1420 mg/kg. With `CCOP(=O)(O)CCCl`, the LD50 was 1250 mg/kg.

Consider `CCCOC(=O)COc1cccc(C(C)(C)C)c1`, for which the LD50 is 1800 mg/kg.

Turning to `COP(=S)(OC)SC(CBr)N1C(=O)c2ccccc2C1=O` (centres undefined), the LD50 is 188 mg/kg.

Turning to `CC(O)=S`, the LD50 is 200 mg/kg. `O=C(O)C(F)(F)C(F)(F)C(F)(F)F`: the LD50 is 2140 mg/kg. Take `C=COC(=O)CCC`: the LD50 is 8530 mg/kg. As to `CCCCC(CC)COS(=O)(=O)O` (centres undefined), the LD50 is 4120 mg/kg.

Consider `C[C@H](N)[C@H](O)c1ccccc1`, for which the LD50 is 1540 mg/kg.

As for `CC(=O)C=CC1=C(C)CCCC1(C)C`, the LD50 is 4590 mg/kg.

For `CS(=O)(=O)O`, the LD50 is 6170 mg/kg. `CCOc1ccc(NC(=O)CC(C)=O)cc1`: the LD50 is 176 mg/kg.

For the compound `CC(C)NC(=O)OC1CCN(CCCC(=O)c2ccc(F)cc2)CC1`, the LD50 was 310 mg/kg. Turning to `Cc1cccc(C(C)C)c1`, the LD50 is 2970 mg/kg. `CCOC(=O)C1=C(COCCN)NC(C)=C(C(=O)OC)C1c1ccccc1Cl` (centres undefined): the 50% lethal dose (LD50) is 393 mg/kg. In the case of `CCOP(=S)(OCC)SC(CC(=O)OCSC)C(=O)OCSC` (centres undefined), the LD50 was 3.7 mg/kg. `CN1CCCC(CC2c3ccccc3Sc3ccccc32)C1` (centres undefined): the LD50 is 1460 mg/kg. For `Cc1ccc2[nH]nnc2c1`, the LD50 was 1600 mg/kg.

In the case of `C/C(=N\O)C(=O)c1ccccc1`, the 50% lethal dose (LD50) was 4240 mg/kg.
